Measurements from US20240199561A1, “INHIBITORS OF DYRK AND PIM” (COLD SPRING HARBOR LABORATORY, priority 2021, published 2024).
Entries after “also recorded” stand apart in the source; their conditions may differ. Values belong to the compound of their own block, whether it stands above or below them.

Assays:
PIM1 = PIM1 (Homo sapiens (Human), UniProt P11309); assay: Kinase assay, PIM1 IC50; format: biochemical
DYRK1A = DYRK1A (Homo sapiens (Human), UniProt Q13627); assay: Radiolabelled kinase assay (IC50 determination), DYRK1A; details: read-out: DYRK1A IC50 (nm)
Description: Protein kinase assays using radiolabeled [γ-^32P] […] In this assay, the activity of a protein kinase is measured using an appropriate acceptor peptide or protein substrate. The assay method involves the use of P81 phosphocellulose paper squares to capture the phosphorylated peptides or proteins resulting from the protein kinase reaction. The activity of DYRK1A was measured by its ability to phosphorylate the peptide termed Woodtide that is derived from the substrate FKHR (Forkhead in rhabdomyosarcoma) at Ser329. Two lysine residues are added at the N-terminus of the peptide to facilitate its binding to the phosphocellulose paper ([sequence]). Assays were carried out at 30° C. for 10 mins using 25 μM Woodtide in 50 mM HEPES pH 7.5, 50 mM MgCl2, 50 mM DTT and 0.1 mM [γ-^32P] ATP (106 c.p.m./nmol). […] The readings were taken using a scintillation counter and data was analyzed using GraphPad Prism 8. One unit of enzyme activity was the amount that catalyzed the phosphorylation of 1 nmol of Woodtide in 1 min.

U87MG cells [1] = assay: Neurosphere proliferation assay, U87MG; format: cell-based; details: for proliferation of U87MG cells, assessed by neurosphere diameter: 5 μM, 10 μM, and 20 μM, compared to DMSO vehicle control; for neurosphere proliferation: U87MG DYRK1A knockouts rescued with point mutant F238LM240R, compared to DYRK1A wild-type treated cells; for neurosphere proliferation (neurosphere numbers and size): U87MG, serum free conditions with growth factors
Description: (§1) Neurospheres are free-floating 3-D clusters of neural stem cells that are grown in serum-free media supplemented with growth factors. These cells have the capacity to self-renew and differentiate into cell types present within the tumor of origin. They are also responsible for tumor propagation, recurrence and resistance to traditional treatments. Neurosphere assays are commonly used to uncover more relevant brain tumor biology than traditional culture conditions. Several parameters can be assayed including neurosphere number and size. Neurosphere formation remained a significant predictor of clinical outcome in GBM, independent of the Ki67 labeling index. […] Self-renewal is the ability of a single cell to form a neurosphere.
(§2) Two EGFR-dependent GBM cell-lines, U87MG and LN229 were grown under serum free conditions with growth factors to induce the formation of neurospheres. Their stemness was confirmed using a western blot to detect stem cell markers. […] This reaffirmed the fact that DYRK1A plays a crucial role in regulating neurosphere self-renewal in GBM.
Compounds of Formula I therefore have an anticancer potential and inhibit proliferation of cells with a cancer phenotype.

LN229 [2] = assay: Invasion assay (Matrigel), LN229; format: cell-based
Source text: (§3) The Invasion Assay provides an in vitro system to study cell invasion of malignant and normal cells. Specific applications include assessment of the metastatic potential of tumor cells. Invasion chambers coated with Corning® Matrigel® matrix provide cells with the conditions that allow assessment of their invasive capacity in vitro. Corning Matrigel matrix serves as a reconstituted basement membrane in vitro, occluding the pores of the membrane and blocking non-invasive cells from migrating through the membrane. In contrast, invasive cells (malignant and non-malignant) secrete proteases that enzymatically degrade the Corning Matrigel matrix and enable invasion through the membrane pores.
(§4) In order to assess whether DYRK1A plays a role in cell invasion, we performed an invasion assay using the two GBM cell lines U87MG and LN229. […] Inhibition of DYRK1A using FC2 and FC3 can also decrease the metastatic potential of GBM cells, thus making them good therapeutic candidates for EGFR-dependent GBM.

[3] = target: panel of 140 different kinases; assay: Panel of 140 different kinases; format: biochemical
U87MG cells [4] = assay: Invasion assay (Matrigel), U87MG; format: cell-based; details: for ability of the cells to invade the Matrigel chamber / cell invasion (cells crossing matrigel membrane): U87MG; for invasion: U87MG DYRK1A knockouts rescued with point mutant F238LM240R, compared to DYRK1A wild-type treated cells; for cell invasion (cells crossing matrigel membrane): 5 μM and 10 μM, relative to DMSO vehicle
Source text: as §3, §4

DYRK1A point mutants [5] = target: DYRK1A point mutants (Homo sapiens, UniProt Q13627, M240R); assay: In-vitro radiolabeled kinase assays against DYRK1A point mutants; format: biochemical; details: M240R
Source text: (§5) Kinase domains contain a gatekeeper residue that partially or fully blocks a hydrophobic region deep in the ATP binding pocket. The gatekeeper residue contributes to the selectivity of kinases for small molecule inhibitors. Based on the DYRK1A crystal structure with FC3 and sequence alignment, the gatekeeper residue in DYRK1A is Phe238 which is replaced by a smaller […] in case of PIM1 and other PIM kinases. Similarly, Met240, two residues after the gatekeeper residue was very unique to DYRK1A. Another interesting residue was Ser241 which was conserved among DYRKs. Point mutants of the gatekeeper residue (F238L), Met240 (M240R), […] and a double mutant (F238LM240R) were created to evaluate if the point mutants show resistance towards FC2 and FC3.
(§6) In-vitro radiolabeled kinase assays were used to determine the IC50s of FC2 and FC3 against the DYRK1A point mutants. There was no change in the Km or Vmax of the point mutants of DYRK1A and their activity was similar to wild-type DYRK1A.

DYRK1A point mutants [6] = target: DYRK1A point mutants (Homo sapiens, UniProt Q13627, F238L); assay: as above; format: biochemical; details: F238L
Source text: as §5, §6

DYRK1A point mutants [7] = target: DYRK1A point mutants (Homo sapiens, UniProt Q13627, F238L/M240R); assay: as above; format: biochemical; details: F238LM240R
Source text: as §5, §6

LN229 [8] = assay: Neurosphere proliferation assay, LN229; format: cell-based; details: LN229, serum free conditions with growth factors
Description: as §1, §2

DYRK1A point mutants [9] = target: DYRK1A point mutants (Homo sapiens, UniProt Q13627, S242A); assay: In-vitro radiolabeled kinase assays against DYRK1A point mutants; format: biochemical; details: S242A
Source text: as §5, §6

PIM1, sequence (P11309 whole entry): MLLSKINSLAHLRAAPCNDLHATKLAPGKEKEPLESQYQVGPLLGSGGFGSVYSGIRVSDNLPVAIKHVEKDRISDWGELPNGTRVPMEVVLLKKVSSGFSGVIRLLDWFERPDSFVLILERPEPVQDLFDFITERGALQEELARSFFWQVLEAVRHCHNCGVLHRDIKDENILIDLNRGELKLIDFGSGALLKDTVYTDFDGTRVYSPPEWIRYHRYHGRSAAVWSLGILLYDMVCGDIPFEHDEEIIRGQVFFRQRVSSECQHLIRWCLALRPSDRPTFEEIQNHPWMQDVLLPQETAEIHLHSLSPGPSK

Compound: Oc1ccc(-c2nc3cc4c(cc3s2)OCO4)cc1O [FC-2, 4-([1,3]Dioxolo[4′,5′:4,5]benzo[1,2-d]thiazol-6-yl)benzene-1,2-diol]
- PIM1 IC50 (nm) (PIM1): Micromolar inhibition
- IC50 (DYRK1A): 19 nM
- proliferation of U87MG cells, assessed by neurosphere diameter (U87MG cells [1]): significantly inhibited proliferation
- neurosphere proliferation (U87MG cells [1]): did not show a decrease
- neurosphere proliferation (neurosphere numbers and size) (U87MG cells [1]): significant decrease in neurosphere proliferation
- ability of the cells to invade the Matrigel chamber (LN229 [2]): impaired the ability of the cells to invade
- kinase specificity [3]: very specific to the DYRK family of kinases
- ability of the cells to invade the Matrigel chamber (U87MG cells [4]): impaired the ability of the cells to invade
- invasion (U87MG cells [4]): did not show a decrease
- cell invasion (cells crossing matrigel membrane) (U87MG cells [4]): significantly inhibited cell invasion; also recorded: reduces the invasive ability
- IC50 against DYRK1A point mutant versus wild-type (DYRK1A point mutants [5]): significantly higher
- IC50 against DYRK1A point mutant versus wild-type (DYRK1A point mutants [6]): significantly higher
- IC50 against DYRK1A double mutant versus wild-type (DYRK1A point mutants [7]): even higher
- neurosphere proliferation (neurosphere numbers and size) (LN229 [8]): significant decrease in neurosphere proliferation

Compound: O=C(c1ccc(O)c(O)c1)c1nc2cc(O)c(O)cc2s1 [FC-3, (5,6-Dihydroxybenzo[d]thiazol-2-yl)(3,4-dihydroxyphenyl)methanone]
- PIM1 IC50 (nm) (PIM1): Micromolar inhibition
- IC50 (DYRK1A): 53 nM
- proliferation of U87MG cells, assessed by neurosphere diameter (U87MG cells [1]): significantly inhibited proliferation
- neurosphere proliferation (U87MG cells [1]): did not show a decrease
- neurosphere proliferation (neurosphere numbers and size) (U87MG cells [1]): significant decrease in neurosphere proliferation
- ability of the cells to invade the Matrigel chamber (LN229 [2]): impaired the ability of the cells to invade
- kinase specificity [3]: very specific to the DYRK family of kinases
- ability of the cells to invade the Matrigel chamber (U87MG cells [4]): impaired the ability of the cells to invade
- invasion (U87MG cells [4]): did not show a decrease
- cell invasion (cells crossing matrigel membrane) (U87MG cells [4]): significantly inhibited cell invasion; also recorded: reduces the invasive ability
- IC50 against DYRK1A point mutant versus wild-type (DYRK1A point mutants [5]): significantly higher
- IC50 against DYRK1A point mutant versus wild-type (DYRK1A point mutants [9]): significantly higher
- IC50 against DYRK1A point mutant versus wild-type (DYRK1A point mutants [6]): significantly higher
- IC50 against DYRK1A double mutant versus wild-type (DYRK1A point mutants [7]): even higher
- neurosphere proliferation (neurosphere numbers and size) (LN229 [8]): significant decrease in neurosphere proliferation

Compound: COc1cc(O)c(C(=O)c2nc3cc(O)c(O)cc3s2)cc1O [FC-4, (2,5-Dihydroxy-4-methoxyphenyl)(5,6-dihydroxybenzo[d]thiazol-2-yl)methanone]
- IC50 (PIM1): 174 nM
- IC50 (DYRK1A): 87 nM

Compound: Oc1cc2nc(-c3ccc(O)c(O)c3O)sc2cc1O [FC-5]
- IC50 (PIM1): 144 nM
- IC50 (DYRK1A): 95 nM

Compound: COc1cc(O)c(C(=O)c2nc3cc(O)ccc3s2)cc1O [FC-6, (2,5-Dihydroxy-4-methoxyphenyl)(5-hydroxybenzo[d]thiazol-2-yl)methanone]
- IC50 (PIM1): 552 nM
- IC50 (DYRK1A): 180 nM

Compound: O=C(c1ccc(O)c(O)c1)c1nc2c(O)ccc(O)c2s1 [FC-7, (4,7-Dihydroxybenzo[d]thiazol-2-yl)(3,4-dihydroxyphenyl)methanone]
- PIM1 IC50 (nm) (PIM1): Micromolar inhibition
- IC50 (DYRK1A): 229 nM

Compound: CCN1/C(=C/C(C)=O)Sc2ccc(O)cc21 [INDY, reference compound]
- proliferation of U87MG cells, assessed by neurosphere diameter (U87MG cells [1]): did not inhibit proliferation

Continued, values first:

- IC50 (DYRK1A): 560 nM
Compound: COc1ccc(O)c2nc(C(=O)c3ccc(O)c(O)c3)sc12 [FC-7A, (3,4-dihydroxyphenyl)(4-hydroxy-7-methoxybenzo[d]thiazol-2-yl)methanone]

- IC50 (PIM1): 317 nM
- IC50 (DYRK1A): 238 nM
Compound: COc1ccc(C(=O)c2nc3cc(O)c(O)cc3s2)cc1F [FC-8, (5,6-Dihydroxybenzo[d]thiazol-2-yl)(3-fluoro-4-methoxyphenyl)methanone]

- IC50 (DYRK1A): 110 nM
Compound: Oc1ccc(-c2nc3ccc4nn[nH]c4c3s2)cc1O [FC-10, 4-(1H-thiazolo[5′,4′:3,4]benzo[1,2-d][1,2,3]triazol-7-yl)benzene-1,2-diol]

- IC50 (DYRK1A): 400 nM
Compound: Oc1ccc(-c2nc3c(ccc4[nH]cnc43)s2)cc1O [FC-14, 4-(6H-imidazo[4′,5′:5,6]benzo[1,2-d]thiazol-2-yl)benzene-1,2-diol]

- IC50 (PIM1): 238 nM
Compound: O=C(c1nc2cc(O)c(O)cc2s1)c1cc(O)c(O)cc1O [FC-63]

- PIM1 IC50 (nm) (PIM1): No Inhibition
- IC50 (DYRK1A): 524 nM
Compound: O=[N+]([O-])c1ccc(O)cc1-c1nc2cc3c(cc2s1)OCO3 [FC-115]

- IC50 (DYRK1A): 500 nM
Compound: Oc1ccc(-c2nc3ccc4[nH]ncc4c3s2)cc1O [FC-196, 4-(6H-thiazolo[5,4-e]indazol-2-yl)benzene-1,2-diol]

- IC50 (DYRK1A): 57 nM
Compound: Oc1ccc(-c2nc3cc4cn[nH]c4cc3s2)cc1O [FC-204, 4-(1H-thiazolo[4,5-f]-indazol-6-yl)benzene-1,2-diol]

- IC50 (DYRK1A): 206 nM
Compound: COc1ccc(-c2nc3cc4cn[nH]c4cc3s2)cc1OC [FC-205, 6-(3,4-dimethoxyphenyl)-1H-thiazolo[4,5-f]-indazole]

- IC50 (DYRK1A): 560 nM
Compound: S=C1Cc2ccc(-c3nc4cc5c(cc4s3)OCO5)cc2N1 [FC-208]
